Experimental data reported in PubChem BioAssay AID1963869 (Molecular Pharmacology Branch, DTP, NCI, 2024).
Values joined by “and” are separate entries in the source; they are usually repeats but may differ in a detail not shown here. Identical values can stand only once.

Tested on: KRAS patient-derived spheroids with HUVEC/MSC, viability
Test: Anticancer human tumor 323965-272-R-J2-PDC patient-derived pancreatic carcinoma cell line growth inhibition [KRAS2]
Details: for viability, T/C: stronger effect = lower value
Source text: Multicellular complex tumor spheroid response to RAS pathway inhibitors in combination with a targeted agents in patient-derived cell lines with oncogenic KRAS variants from multiple cancer types
A high-throughput screen of multi-cell type tumor spheroids was designed to identify active combinations of targeted small molecules and KRAS pathway inhibitors. Complex spheroids include a stromal component modeled by human endothelial cells (HUVEC) and fibroblasts modeled by human mesenchymal stem cells (MSCs). The concentration ranges selected for each drug and investigational agent were based upon clinically achievable concentrations if the clinical Cmax of the agent was known.
Compounds. The drugs and investigational agents: BI-3406 (NSC825286), BAY-293 (NSC824723), batoprotafib (TNO155; NSC825523), sotorasib (AMG 510; NSC818433), MRTX1257 (NSC819558), elimusertib (BAY 1895344; NSC800525), molibresib (GSK525762; NSC774829), temuterkib (LY3214996; NSC803410), venetoclax (NSC766270), alisertib (NSC759677), olaparib (NSC753686), talazoparib (NSC767125), erdafitinib (NSC781556), ipatasertib (NSC767898), cabozantinib (NSC761068), nintedanib (NSC756659), abemaciclib (NSC768073), docetaxel (NSC628503), trametinib (NSC758246), and sapanisertib (NSC764658) were obtained from the National Cancer Institute (NCI) Developmental Therapeutics Program Chemical Repository. The FDA-approved anticancer drug set is available from the Developmental Therapeutics Program. […] The stock solutions were prepared in dimethyl sulfoxide (DMSO, Sigma-Aldrich, St. Louis, MO, cat. D2650) at 800-fold the tested concentration and stored at -70 degrees C prior to their use. All drugs and investigational agents were tested over a range starting from a high concentration at or near the clinical Cmax and decreasing in half-log increments. If the clinical Cmax for an agent had not been determined, the highest concentration tested was 10 microM.
Cell Culture. All cells were maintained in an incubator at 37 degrees C and 5% CO2 with 95% humidity. The PDC lines were cultured according to standard operating procedures established by the NCI PDMR (https://pdmr.cancer.gov/sops/default.htm). Briefly, all PDCs were thawed and cultured in Matrigel-coated flasks prepared with a working solution of 1X Ham's F-12 nutrient mix, without supplementation (Invitrogen, Waltham, MA, cat. 11765054), 100 U/mL penicillin-streptomycin (Invitrogen, cat. 15140122), and 2.5% Matrigel (Corning Inc., Corning, NY, cat. 354248) for the first three passages. All PDCs were cultured in complete DMEM/F-12 media containing advanced DMEM/F-12 (Invitrogen, cat. 12634028), 4.9% defined fetal bovine serum, heat inactivated (HyClone Laboratories Inc., Logan, UT, cat. SH30070.03HI), 389 ng/mL hydrocortisone (Sigma-Aldrich, cat. H4001), 9.7 ng/mL human EGF recombinant protein (Invitrogen, cat. PHG0313), 23.4 microg/mL adenine (Sigma-Aldrich, cat. A2786), 97.3 U/mL penicillin-streptomycin (Invitrogen, cat. 15140122), 1.9 mM L-glutamine (Invitrogen, cat. 25030081), and 9.7 microM Y-27632 dihydrochloride (Tocris Bioscience, Bristol, United Kingdom, cat. 1254). The PDCs were cultured in complete DMEM/F12 media without 9.7 microM Y-27632 dihydrochloride for at least two passages prior to the screen. The established cell line HOP-62 was cultured in RPMI 1640 medium, HEPES (Invitrogen, cat. 22400105) with 10% defined fetal bovine serum (HyClone Laboratories Inc., cat. SH30070.03) and 2 mM L-glutamine (Invitrogen, cat. 25030081). The pooled donor HUVEC were cultured in endothelial cell growth medium 2 (PromoCell, Heidelberg, Germany, cat. C-22011) and the hMSC were cultured in mesenchymal stem cell growth medium 2 (PromoCell, cat. C-28009). For all experiments, HUVEC and hMSC were used at passages </=5, while the malignant cell lines were used at passages </=15. […]

[1] = curve of first compound, second compound 0.1 µM
[2] = curve of first compound, second compound 0.316 µM
[3] = curve of first compound, second compound 1 µM
[4] = curve of first compound, second compound 3.16 µM
[5] = second compound 0.1 µM, first compound 0.0316 µM
[6] = second compound 0.1 µM, first compound 0.1 µM
[7] = second compound 0.1 µM, first compound 0.316 µM
[8] = second compound 0.1 µM, first compound 1 µM
[9] = second compound 0.316 µM, first compound 0.0316 µM
[10] = second compound 0.316 µM, first compound 0.1 µM
[11] = second compound 0.316 µM, first compound 0.316 µM
[12] = second compound 0.316 µM, first compound 1 µM
[13] = second compound 1 µM, first compound 0.0316 µM
[14] = second compound 1 µM, first compound 0.1 µM
[15] = second compound 1 µM, first compound 0.316 µM
[16] = second compound 1 µM, first compound 1 µM
[17] = second compound 3.16 µM, first compound 0.0316 µM
[18] = second compound 3.16 µM, first compound 0.1 µM
[19] = second compound 3.16 µM, first compound 0.316 µM
[20] = second compound 3.16 µM, first compound 1 µM
[21] = curve of first compound, second compound 0.0316 µM
[22] = second compound 0.0316 µM, first compound 0.00316 µM
[23] = second compound 0.0316 µM, first compound 0.01 µM
[24] = second compound 0.0316 µM, first compound 0.0316 µM
[25] = second compound 0.0316 µM, first compound 0.1 µM
[26] = second compound 0.1 µM, first compound 0.00316 µM
[27] = second compound 0.1 µM, first compound 0.01 µM
[28] = second compound 0.316 µM, first compound 0.00316 µM
[29] = second compound 0.316 µM, first compound 0.01 µM
[30] = second compound 1 µM, first compound 0.00316 µM
[31] = second compound 1 µM, first compound 0.01 µM
[32] = second compound 3.16 µM, first compound 0.00316 µM
[33] = second compound 3.16 µM, first compound 0.01 µM
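Further: spheroids exposed to agents for 7 days.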
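Wherever viability, T/C is given: 100% = DMSO vehicle control viability.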

Structure (SMILES): Cn1ncnc1[C@H]1c2n[nH]c(=O)c3cc(F)cc(c23)N[C@@H]1c1ccc(F)cc1
- viability, T/C (compound 0.000316 µM): 107% [middle of 4 runs]
- viability, T/C (compound 0.001 µM): 104% [middle of 4 runs]
- viability, T/C (compound 0.00316 µM): 109% (2×) and 98.1% and 107%
- viability, T/C (compound 0.01 µM): 101% [middle of 4 runs]
- viability, T/C (compound 0.0316 µM): 101% [middle of 4 runs]
- viability, T/C (compound 0.1 µM): 89.2% [middle of 4 runs]
- IC50 (curve of compound): > 100 nM

Structure (SMILES): Cn1nccc1Nc1nccc(-c2cc3c(s2)C(C)(C)N(CCN2CCOCC2)C3=O)n1 + COc1cc2nc(C)nc(NC(C)c3cc(N)cc(C(F)(F)F)c3)c2cc1OC1CCOC1
- IC50 [1]: 343 nM
- IC50 [2]: 258 nM
- IC50 [3]: 188 nM
- IC50 [4]: 324 nM
- IC50 (curve of first compound, second compound 10 µM): 358 nM
- viability, T/C [5]: 70.7%
- viability, T/C [6]: 76.1%
- viability, T/C [7]: 50.3%
- viability, T/C [8]: 38.7%
- viability, T/C (second compound 0.1 µM, first compound 3.16 µM): 30.8%
- viability, T/C (second compound 0.1 µM, first compound 10 µM): 29.9%
- viability, T/C [9]: 75.3%
- viability, T/C [10]: 61.8%
- viability, T/C [11]: 48.1%
- viability, T/C [12]: 34.8%
- viability, T/C (second compound 0.316 µM, first compound 3.16 µM): 30.6%
- viability, T/C (second compound 0.316 µM, first compound 10 µM): 26.1%
- viability, T/C [13]: 65.9%
- viability, T/C [14]: 57.8%
- viability, T/C [15]: 43%
- viability, T/C [16]: 35.6%
- viability, T/C (second compound 1 µM, first compound 3.16 µM): 30%
- viability, T/C (second compound 1 µM, first compound 10 µM): 27.4%
- viability, T/C [17]: 70.7%
- viability, T/C [18]: 68.1%
- viability, T/C [19]: 46.3%
- viability, T/C [20]: 38%
- viability, T/C (second compound 3.16 µM, first compound 3.16 µM): 29.1%
- viability, T/C (second compound 3.16 µM, first compound 10 µM): 22.6%
- viability, T/C (second compound 10 µM, first compound 0.0316 µM): 75.5%
- viability, T/C (second compound 10 µM, first compound 0.1 µM): 66.9%
- viability, T/C (second compound 10 µM, first compound 0.316 µM): 51.7%
- viability, T/C (second compound 10 µM, first compound 1 µM): 36.7%
- viability, T/C (second compound 10 µM, first compound 3.16 µM): 22.7%
- viability, T/C (second compound 10 µM, first compound 10 µM): 24.9%

Structure (SMILES): CCN1CCN(Cc2ccc(Nc3ncc(F)c(-c4cc(F)c5nc(C)n(C(C)C)c5c4)n3)nc2)CC1 + C=CC(=O)N1CCN(c2nc(OCC3CCCN3C)nc3c2CCN(c2cccc4cccc(C)c24)C3)CC1CC#N
- IC50 [21]: 8.21 nM
- IC50 [1]: 4.98 nM
- IC50 [2]: < 3.16 nM
- IC50 [3]: 6.25 nM
- IC50 [4]: < 3.16 nM
- viability, T/C [22]: 60.6%
- viability, T/C [23]: 51.1%
- viability, T/C [24]: 39.1%
- viability, T/C [25]: 38.6%
- viability, T/C (second compound 0.0316 µM, first compound 0.316 µM): 37.2%
- viability, T/C (second compound 0.0316 µM, first compound 1 µM): 45.5%
- viability, T/C [26]: 53.6%
- viability, T/C [27]: 46%
- viability, T/C [5]: 39.1%
- viability, T/C [6]: 31.2%
- viability, T/C [7]: 31.7%
- viability, T/C [8]: 44%
- viability, T/C [28]: 45%
- viability, T/C [29]: 44.8%
- viability, T/C [9]: 33.8%
- viability, T/C [10]: 32.8%
- viability, T/C [11]: 31.9%
- viability, T/C [12]: 38.8%
- viability, T/C [30]: 58.6%
- viability, T/C [31]: 45.9%
- viability, T/C [13]: 36.6%
- viability, T/C [14]: 28.8%
- viability, T/C [15]: 30.3%
- viability, T/C [16]: 36.1%
- viability, T/C [32]: 3%
- viability, T/C [33]: 4.98%
- viability, T/C [17]: 3.68%
- viability, T/C [18]: 2.57%
- viability, T/C [19]: 3.48%
- viability, T/C [20]: 0.89%

Structure (SMILES): Cn1ncnc1[C@H]1c2n[nH]c(=O)c3cc(F)cc(c23)N[C@@H]1c1ccc(F)cc1 + C=CC(=O)N1CCN(c2nc(OCC3CCCN3C)nc3c2CCN(c2cccc4cccc(C)c24)C3)CC1CC#N
- IC50 [21]: > 100 nM
- IC50 [1]: > 100 nM
- IC50 [2]: > 100 nM
- IC50 [3]: > 100 nM
- IC50 [4]: < 0.316 nM
- viability, T/C (second compound 0.0316 µM, first compound 0.000316 µM): 75.5%
- viability, T/C (second compound 0.0316 µM, first compound 0.001 µM): 83.2%
- viability, T/C [22]: 73.7%
- viability, T/C [23]: 71.2%
- viability, T/C [24]: 68.7%
- viability, T/C [25]: 64%
- viability, T/C (second compound 0.1 µM, first compound 0.000316 µM): 71.2%
- viability, T/C (second compound 0.1 µM, first compound 0.001 µM): 62.3%
- viability, T/C [26]: 62%
- viability, T/C [27]: 61.5%
- viability, T/C [5]: 60.5%
- viability, T/C [6]: 53.8%
- viability, T/C (second compound 0.316 µM, first compound 0.000316 µM): 64.2%
- viability, T/C (second compound 0.316 µM, first compound 0.001 µM): 63.8%
- viability, T/C [28]: 62.7%
- viability, T/C [29]: 60.4%
- viability, T/C [9]: 56.1%
- viability, T/C [10]: 57.7%
- viability, T/C (second compound 1 µM, first compound 0.000316 µM): 58.6%
- viability, T/C (second compound 1 µM, first compound 0.001 µM): 65.5%
- viability, T/C [30]: 59.6%
- viability, T/C [31]: 62.6%
- viability, T/C [13]: 52.8%
- viability, T/C [14]: 57%
- viability, T/C (second compound 3.16 µM, first compound 0.000316 µM): 12.5%
- viability, T/C (second compound 3.16 µM, first compound 0.001 µM): 10.9%
- viability, T/C [32]: 13.9%
- viability, T/C [33]: 11.5%
- viability, T/C [17]: 12.4%
- viability, T/C [18]: 11.6%
